Results published in PubChem BioAssay AID248 (DTP/NCI, 2004).
Values joined by “and” are separate entries in the source; they are usually repeats but may differ in a detail not shown here. Equal entries are not always repeated. Inconclusive results and toxic doses are left out.

Test system: L1210 leukemia ip in BDF1 mice, survival T/C
Assay: NCI In Vivo Anticancer Drug Screen. Data for tumor model L1210 Leukemia (intraperitoneal) in B6D2F1 (BDF1) mice
Conditions: endpoint: mean survival time, higher = longer survival
Method in brief: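 Antitumor effect is assessed in tumor-bearing animals. Survival in the compound arm is compared with a vehicle-dosed control arm and expressed as their quotient.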

[1] = dose: 100.0 mg/kg/injection, schedule: Q04DX003 (ip), vehicle: saline with Tween-80
[2] = dose: 200.0 mg/kg/injection, schedule: Q04DX003 (ip), vehicle: saline with Tween-80
[3] = dose: 400.0 mg/kg/injection, schedule: Q04DX003 (ip), vehicle: saline with Tween-80
[4] = dose: 100.0 mg/kg/injection, schedule: Q04DX003 (ip), vehicle: saline
[5] = dose: 200.0 mg/kg/injection, schedule: Q04DX003 (ip), vehicle: saline
[6] = dose: 100.0 mg/kg/injection, schedule: Q04DX003 (ip), vehicle: Klucel (hydroxypropylcellulose) (HPC)
[7] = dose: 200.0 mg/kg/injection, schedule: Q04DX003 (ip), vehicle: Klucel (hydroxypropylcellulose) (HPC)
[8] = dose: 400.0 mg/kg/injection, schedule: Q04DX003 (ip), vehicle: Klucel (hydroxypropylcellulose) (HPC)
[9] = dose: 100.0 mg/kg/injection, schedule: Q01DX009 (ip), vehicle: Klucel (hydroxypropylcellulose) (HPC)
[10] = dose: 100.0 mg/kg/injection, schedule: Q01DX001 (ip), vehicle: saline
[11] = dose: 200.0 mg/kg/injection, schedule: Q01DX001 (ip), vehicle: saline
[12] = dose: 400.0 mg/kg/injection, schedule: Q01DX001 (ip), vehicle: saline
[13] = dose: 400.0 mg/kg/injection, schedule: Q04DX003 (ip), vehicle: saline
[14] = dose: 100.0 mg/kg/injection, schedule: Q01DX009 (ip), vehicle: saline with Tween-80
[15] = dose: 200.0 mg/kg/injection, schedule: Q01DX009 (ip), vehicle: saline with Tween-80
[16] = dose: 400.0 mg/kg/injection, schedule: Q01DX009 (ip), vehicle: saline with Tween-80
[17] = dose: 50.0 mg/kg/injection, schedule: Q01DX001 (ip), vehicle: saline
[18] = dose: 200.0 mg/kg/injection, schedule: Q01DX009 (ip), vehicle: Klucel (hydroxypropylcellulose) (HPC)
[19] = dose: 400.0 mg/kg/injection, schedule: Q01DX009 (ip), vehicle: Klucel (hydroxypropylcellulose) (HPC)
[20] = dose: 100.0 mg/kg/injection, schedule: Q01DX001 (ip), vehicle: Klucel (hydroxypropylcellulose) (HPC)
[21] = dose: 200.0 mg/kg/injection, schedule: Q01DX001 (ip), vehicle: Klucel (hydroxypropylcellulose) (HPC)
[22] = dose: 400.0 mg/kg/injection, schedule: Q01DX001 (ip), vehicle: Klucel (hydroxypropylcellulose) (HPC)
[23] = dose: 100.0 mg/kg/injection, schedule: Q01DX001 (ip), vehicle: acetone
[24] = dose: 200.0 mg/kg/injection, schedule: Q01DX001 (ip), vehicle: acetone

## CC(=O)Nc1cc(Cl)c(Cl)cc1Cl
[1]
  T/C: 103 % of control
[2]
  T/C: 102 % of control
[3]
  T/C: 96 % of control

## CCCCNC(C)(C)C(=O)c1cccs1
[4]
  T/C: 102 % of control
[5]
  T/C: 86 % of control

## O=C(OCC(OC(=O)c1ccccc1)C1OCC(OC(=O)c2ccccc2)C1OC(=O)c1ccccc1)c1ccccc1 (stereo not drawn)
[1]
  T/C: 88 % of control
[2]
  T/C: 88 % of control
[3]
  T/C: 88 % of control

## Cc1c(C)c(C)c(CN/N=C/c2ccncc2)c(C)c1C
[6]
  T/C: 98 % of control
[7]
  T/C: 109 % of control
[8]
  T/C: 101 % of control

## Cc1c2ccccc2c(C)c2c1cc(O)c1ccccc12
dose: 50.0 mg/kg/injection, schedule: Q01DX009 (ip), vehicle: Klucel (hydroxypropylcellulose) (HPC)
  T/C: 113 % of control
[9]
  T/C: 121 % of control

## CCC(=O)OCC1CCC(COC(=O)CC)CC1 (stereo not drawn)
dose: 222.0 mg/kg/injection, schedule: Q01DX Z (ip), vehicle: methylcellulose (MC)
  T/C: 100 % of control
dose: 333.0 mg/kg/injection, schedule: Q01DX Z (ip), vehicle: methylcellulose (MC)
  T/C: 96 % of control
dose: 500.0 mg/kg/injection, schedule: Q01DX Z (ip), vehicle: methylcellulose (MC)
  T/C: 97 % of control

## Nc1ncnc2c1ncn2C1OC(CO)C(O)C(O)C1O (stereo not drawn)
[10]
  T/C: 103 % of control [middle of 4 runs]
[11]
  T/C: 100 % of control [middle of 4 runs]
[12]
  T/C: 100 % of control [middle of 4 runs]

## CC1(CS(=O)(=O)c2ccccc2)C(=O)C2CCC1C2 (stereo not drawn)
[10]
  T/C: 90 % of control
[4]
  T/C: 94 % of control
[11]
  T/C: 98 % of control
[5]
  T/C: 89 % of control
[12]
  T/C: 88 % of control
[13]
  T/C: 98 % of control

## COc1ccc(NC(=O)Oc2ccc(Cl)c(C)c2)cc1
[1]
  T/C: 93 % of control
[2]
  T/C: 90 % of control
[3]
  T/C: 88 % of control

## CC1(C)OC2COC(c3[nH]nc4c(=O)[nH]c(=O)[nH]c34)C2O1 (stereo not drawn)
dose: 25.0 mg/kg/injection, schedule: Q01DX009 (ip), vehicle: saline
  T/C: 96 % of control
dose: 100.0 mg/kg/injection, schedule: Q01DX005 (ip), vehicle: saline
  T/C: 101 % of control
dose: 100.0 mg/kg/injection, schedule: Q01DX009 (ip), vehicle: saline
  T/C: 188 % of control

## Cc1cc(C)c(NC(=O)CC#N)c(C)c1
dose: 100.0 mg/kg/injection, schedule: Q04DX002 (ip), vehicle: saline with Tween-80
  T/C: 90 % of control
dose: 200.0 mg/kg/injection, schedule: Q04DX002 (ip), vehicle: saline with Tween-80
  T/C: 90 % of control
dose: 400.0 mg/kg/injection, schedule: Q04DX002 (ip), vehicle: saline with Tween-80
  T/C: 90 % of control

## CCCCCCCCCCCCOC(C(=O)O)(c1ccccc1)c1ccccc1
dose: 25.0 mg/kg/injection, schedule: Q04DX003 (ip), vehicle: saline with Tween-80
  T/C: 100 % of control
dose: 50.0 mg/kg/injection, schedule: Q04DX003 (ip), vehicle: saline with Tween-80
  T/C: 91 % of control
[1]
  T/C: 98 % of control and 89 % of control

## CCN(C(=O)CCl)C(C)(C)C(SSSC(c1ccc(Cl)cc1)C(C)(C)N(CC)C(=O)CCl)c1ccc(Cl)cc1 (stereo not drawn)
[4]
  T/C: 95 % of control
[5]
  T/C: 91 % of control

## CN(Cc1ccc(Cl)cc1)C(=O)Nc1ccccc1C(F)(F)F
[14]
  T/C: 108 % of control
[15]
  T/C: 106 % of control
[16]
  T/C: 103 % of control

## Clc1cc(Cl)c(OCC#CI)cc1Cl
[17]
  T/C: 104 % of control
[10]
  T/C: 98 % of control
[11]
  T/C: 93 % of control
[12]
  T/C: 89 % of control

## Nc1ccc(C(=O)Nc2ccc(Nc3ccncc3)cc2)cc1
[9]
  T/C: 112 % of control
[6]
  T/C: 108 % of control
[18]
  T/C: 106 % of control
[7]
  T/C: 103 % of control
[19]
  T/C: 103 % of control
[8]
  T/C: 106 % of control

## CCCCN(CCCC)c1ccc(/C=C/c2ccncc2)cc1
[20]
  T/C: 95 % of control
[9]
  T/C: 93 % of control
[21]
  T/C: 101 % of control
[18]
  T/C: 101 % of control
[22]
  T/C: 96 % of control
[19]
  T/C: 90 % of control

## O=C(CC(=O)c1ccccc1)Nc1ccccn1
[10]
  T/C: 101 % of control
[11]
  T/C: 98 % of control

## COc1ccc(-n2c(=O)c(N=Nc3ccccc3C)c(O)n(-c3ccccc3Cl)c2=S)cc1
[20]
  T/C: 107 % of control
[21]
  T/C: 94 % of control
[22]
  T/C: 102 % of control

## COc1cc2ccc3c4cc5c(cc4c[n+](C)c3c2cc1OC)OCO5
dose: 10.0 mg/kg/injection, schedule: Q01DX009 (ip), vehicle: saline
  T/C: 124 % of control
dose: 20.0 mg/kg/injection, schedule: Q01DX009 (ip), vehicle: saline
  T/C: 112 % of control
dose: 40.0 mg/kg/injection, schedule: Q01DX009 (ip), vehicle: saline
  T/C: 122 % of control

## COc1cccc(CNC(C)(CO)CO)c1OC
[17]
  T/C: 98 % of control
[10]
  T/C: 104 % of control
[11]
  T/C: 102 % of control

## Cc1ccc(/C=C(\C#N)C(=O)O)cc1
dose: 12.5 mg/kg/injection, schedule: Q01DX009 (ip), vehicle: saline with Tween-80
  T/C: 94 % of control
dose: 25.0 mg/kg/injection, schedule: Q01DX009 (ip), vehicle: saline with Tween-80
  T/C: 94 % of control
dose: 50.0 mg/kg/injection, schedule: Q01DX009 (ip), vehicle: saline with Tween-80
  T/C: 100 % of control and 88 % of control

## Brc1ccc2c(c1)nc1n2CCC1
[23]
  T/C: 105 % of control
[4]
  T/C: 104 % of control
[24]
  T/C: 108 % of control
[5]
  T/C: 111 % of control
dose: 400.0 mg/kg/injection, schedule: Q01DX001 (ip), vehicle: acetone
  T/C: 94 % of control
[13]
  T/C: 101 % of control

## CCOC(=O)COc1ccc(-c2ccccc2)cc1Br
dose: 100.0 mg/kg/injection, schedule: Q04DX002 (ip), vehicle: Klucel (hydroxypropylcellulose) (HPC)
  T/C: 104 % of control
dose: 200.0 mg/kg/injection, schedule: Q04DX002 (ip), vehicle: Klucel (hydroxypropylcellulose) (HPC)
  T/C: 104 % of control
dose: 400.0 mg/kg/injection, schedule: Q04DX002 (ip), vehicle: Klucel (hydroxypropylcellulose) (HPC)
  T/C: 104 % of control

## Cc1cc(CC(O)(C(F)(F)Cl)C(F)(F)Cl)cc(C)n1
[14]
  T/C: 97 % of control
[15]
  T/C: 94 % of control
[16]
  T/C: 95 % of control

## NCCCC(=S)S
dose: 100.0 mg/kg/injection, schedule: Q04DX002 (ip), vehicle: saline
  T/C: 95 % of control
dose: 200.0 mg/kg/injection, schedule: Q04DX002 (ip), vehicle: saline
  T/C: 96 % of control and 103 % of control
dose: 400.0 mg/kg/injection, schedule: Q04DX002 (ip), vehicle: saline
  T/C: 96 % of control and 116 % of control

## CCCOc1ccc(Nc2c3ccccc3nc3ccccc23)cc1
[6]
  T/C: 102 % of control
[7]
  T/C: 96 % of control

## CC12OC1C(=O)c1ccccc1C2=O (stereo not drawn)
dose: 5.0 mg/kg/injection, schedule: Q04DX003 (ip), vehicle: Klucel (hydroxypropylcellulose) (HPC)
  T/C: 103 % of control
dose: 10.0 mg/kg/injection, schedule: Q04DX003 (ip), vehicle: Klucel (hydroxypropylcellulose) (HPC)
  T/C: 97 % of control

## c1ccc2c3nc4ccccc4c-3scc2c1
[23]
  T/C: 100 % of control
[24]
  T/C: 103 % of control

## OCC1OC(n2c(N3CCOCC3)nc3ccccc32)C(O)C1O (stereo not drawn)
[10]
  T/C: 115 % of control
[11]
  T/C: 97 % of control
[12]
  T/C: 96 % of control

## S=C(N/N=C/c1ccccn1)NC1CC2C=CC1C2 (stereo not drawn)
[9]
  T/C: 100 % of control
[18]
  T/C: 95 % of control

## COC(=O)C1CC(=O)c2ccc(OC)cc21 (stereo not drawn)
[20]
  T/C: 102 % of control
[21]
  T/C: 92 % of control
[22]
  T/C: 100 % of control

## CSc1ncc2cnccn12
dose: 25.0 mg/kg/injection, schedule: Q01DX009 (ip), vehicle: water
  T/C: 95 % of control
dose: 25.0 mg/kg/injection, schedule: Q04DX003 (ip), vehicle: saline
  T/C: 106 % of control
dose: 50.0 mg/kg/injection, schedule: Q01DX009 (ip), vehicle: water
  T/C: 102 % of control
dose: 50.0 mg/kg/injection, schedule: Q04DX003 (ip), vehicle: saline
  T/C: 101 % of control
dose: 100.0 mg/kg/injection, schedule: Q01DX009 (ip), vehicle: water
  T/C: 102 % of control
[4]
  T/C: 101 % of control
dose: 100.0 mg/kg/injection, schedule: Q04DX003 (ip), vehicle: water
  T/C: 93 % of control
